This assay concerns the target SIK2 (Homo sapiens, UniProt Q9H0K1). Put plainly: SIK2 Enzymatic Assay High Version 2 (High ATP). Format: biochemical. The method, then:
All steps were performed at room temperature. Compounds were pre-plated onto an assay plate using an Echo acoustic dispenser (Labcyte, E550 or E555) at 80 nL per well. Enzyme prepared in assay buffer at 6 nM (2× final concentration) was added at 4 μL per well using the Multidrop Combi (Thermo Fisher—used for all additions in this assay) to the assay plate, spun for 1 min at 1000 rpm (Allegra 6KR Beckman Coulter centrifuge), and incubated with compound for 30 minutes. Assay buffer containing 6 mM ATP and 400 μM HDAC5tide (2× of final concentration for each substrate) was added at 4 μL per well to the assay plate and then spun as above and incubated for 2 hours. […] ADP-Glo Max Reagent (prepared and aliquoted as per manufacturer instructions) was then added at 8 μL per well, spun and incubated for 2 hours. ADP-Glo Max Detection (prepared and aliquoted as per manufacturer instructions) was added at 8 μL per well to the assay plate, which was spun and incubated for 1 hour. The plate is then read on the Pherastar (BMG Labtech) using a luminescence read. Gain is set between 2200-2500.

Where [1] appears, read: enzyme 6 nM, 6 mM ATP and 400 μM HDAC5tide (each 2× final concentration), 30 minutes pre-incubation, 2 hours, ADP-Glo Max luminescence, read-out: SIK2 high ATP IC50 (μM) (Test Example 2).

Read-outs that look alike come from different tables or passages of the source.

SIK2, sequence (Q9H0K1 whole entry, species assumed): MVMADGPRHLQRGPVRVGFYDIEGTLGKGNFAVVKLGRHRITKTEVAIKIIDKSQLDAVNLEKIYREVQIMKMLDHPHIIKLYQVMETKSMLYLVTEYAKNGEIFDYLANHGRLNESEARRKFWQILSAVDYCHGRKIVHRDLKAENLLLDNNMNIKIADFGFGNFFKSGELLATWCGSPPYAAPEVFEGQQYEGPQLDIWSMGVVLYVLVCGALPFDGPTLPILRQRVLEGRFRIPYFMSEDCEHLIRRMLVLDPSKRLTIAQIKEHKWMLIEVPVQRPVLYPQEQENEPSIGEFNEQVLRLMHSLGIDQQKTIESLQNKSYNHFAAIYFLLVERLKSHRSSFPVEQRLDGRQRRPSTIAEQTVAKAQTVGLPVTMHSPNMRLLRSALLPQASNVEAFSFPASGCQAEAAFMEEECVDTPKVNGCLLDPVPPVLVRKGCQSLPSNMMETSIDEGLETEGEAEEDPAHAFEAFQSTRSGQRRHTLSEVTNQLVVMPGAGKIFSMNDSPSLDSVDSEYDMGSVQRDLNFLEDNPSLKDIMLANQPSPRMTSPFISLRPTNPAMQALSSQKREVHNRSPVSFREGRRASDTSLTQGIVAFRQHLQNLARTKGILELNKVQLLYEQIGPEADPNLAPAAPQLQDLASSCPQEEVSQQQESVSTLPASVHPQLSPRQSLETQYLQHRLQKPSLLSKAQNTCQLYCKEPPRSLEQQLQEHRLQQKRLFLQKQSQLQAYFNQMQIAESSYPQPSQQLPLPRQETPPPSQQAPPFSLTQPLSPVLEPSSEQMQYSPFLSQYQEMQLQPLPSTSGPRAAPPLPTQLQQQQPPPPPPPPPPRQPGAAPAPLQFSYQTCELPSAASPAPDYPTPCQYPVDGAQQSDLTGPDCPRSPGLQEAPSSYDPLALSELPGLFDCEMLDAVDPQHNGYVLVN

As usually defined, the IC50 is the concentration that inhibits the measured activity by half. Turning to `Cc1cc(-c2ccn3nc(Nc4cc(C)nc(C)n4)cc3c2)c(OC[C@@H]2COC[C@H](O)C2)cn1` (single isomer, unassigned) [Example 351, (3*R, 5*S)-5-[[4-[2-[(2,6-dimethylpyrimidin-4-yl)amino]pyrazolo[1,5-a]pyridin-5-yl]-6-methyl-3-pyridyl]oxymethyl]tetrahydropyran-3-ol], the IC50 under setting [1] was 0.00278 µM. Take `Cc1cc(-c2ccn3nc(Nc4cc(C)nc(C)n4)cc3c2)c(O[C@@H]2CCS(=O)(=O)N(C)C2)cn1` (single isomer, unassigned) [Example 354, (*R)—N-(2,6-dimethylpyrimidin-4-yl)-5-[2-methyl-5-(2-methyl-1,1-dioxo-thiazinan-4-yl)oxy-4-pyridyl]pyrazolo[1,5-a]pyridin-2-amine]: under setting [1], the IC50 amounted to 0.0322 µM.

As for `Cc1cc(-c2ccn3nc(Nc4cc(C)nc(C)n4)cc3c2)c(O[C@H]2CCS(=O)(=O)N(C)C2)cn1` (single isomer, unassigned) [Example 355, (*S)—N-(2,6-dimethylpyrimidin-4-yl)-5-[2-methyl-5-(2-methyl-1,1-dioxo-thiazinan-4-yl)oxy-4-pyridyl]pyrazolo[1,5-a]pyridin-2-amine], under setting [1], the IC50 worked out at 0.00681 µM. On to `Cc1cc(-c2ccn3nc(Nc4cc(C)nc(C)n4)cc3c2)c(OC[C@H]2CCS(=O)(=O)C2)cn1` (single isomer, unassigned) [Example 363, (*R)—N-(2,6-dimethylpyrimidin-4-yl)-5-[5-[(1,1-dioxothiolan-3-yl)methoxy]-2-methyl-4-pyridyl]pyrazolo[1,5-a]pyridin-2-amine], for which the IC50 under setting [1] stood at 0.0035 µM. The same measure, in the same setting: as for `Cc1cc(-c2ccn3nc(Nc4cc(C)nc(C)n4)cc3c2)c(OC[C@@H]2CCS(=O)(=O)C2)cn1` (single isomer, unassigned) [Example 364, (*S)—N-(2,6-dimethylpyrimidin-4-yl)-5-[5-[(1,1-dioxothiolan-3-yl)methoxy]-2-methyl-4-pyridyl]pyrazolo[1,5-a]pyridin-2-amine], the figure is 0.0441 µM; as for `Cc1cc(-c2ccn3nc(NC(=O)C4CC4)cc3c2)c(O[C@H]2CCN[C@@H](C(F)(F)F)C2)cn1` (single isomer, unassigned) [Example 446], 0.00318 µM. As for `Cc1cc(-c2ccn3nc(NC(=O)C4CC4)cc3c2)c(OC[C@@]2(F)CCNC2)cn1` (single isomer, unassigned) [Example 447, (*R)—N-[5-[5-[(3-fluoropyrrolidin-3-yl)methoxy]-2-methyl-4-pyridyl]pyrazolo[1,5-a]pyridin-2-yl]cyclopropanecarboxamide], the IC50 under setting [1] was 0.0246 µM.

On to `Cc1cc(-c2ccn3nc(NC(=O)C4CC4)cc3c2)c(OC[C@]2(F)CCNC2)cn1` (single isomer, unassigned) [Example 448, (*S)—N-[5-[5-[(3-fluoropyrrolidin-3-yl)methoxy]-2-methyl-4-pyridyl]pyrazolo[1,5-a]pyridin-2-yl]cyclopropanecarboxamide], for which the IC50 under setting [1] is 0.0469 µM. Same read-out and setting: under `Cc1cc(-c2ccn3nc(NC(=O)C4CC4)cc3c2)c(OCC2(F)CCN(C)C2)cn1` (single isomer, unassigned) [Example 449, *R—N-[5-[5-[(3-fluoro-1-methyl-pyrrolidin-3-yl)methoxy]-2-methyl-4-pyridyl]pyrazolo[1,5-a]pyridin-2-yl]cyclopropanecarboxamide] stands 0.0472 µM; under `Cc1cc(-c2ccn3nc(NC(=O)C4CC4)cc3c2)c(OCC2(C)CCN2C)cn1` (single isomer, unassigned) [Example 450, (*S)—N-[5-[5-[(1,2-dimethylazetidin-2-yl)methoxy]-2-methyl-4-pyridyl]pyrazolo[1,5-a]pyridin-2-yl]cyclopropanecarboxamide], 0.04 µM; under `Cc1cc(-c2ccn3nc(NC(=O)C4CC4)cc3c2)c(OC[C@@H](O)C(F)(F)F)cn1` (single isomer, unassigned) [Example 454, (*R)—N-[5-[2-methyl-5-[(2R)-3,3,3-trifluoro-2-hydroxy-propoxy]-4-pyridyl]pyrazolo[1,5-a]pyridin-2-yl]cyclopropanecarboxamide], 0.0134 µM.

Compound `Cc1cc(-c2ccn3nc(NC(=O)C4CC4)cc3c2)c(O[C@H]2CN(C)[C@H]2C)cn1` (single isomer, unassigned) [Example 456, (*S, *S)—N-[5-[5-(1,2-dimethylazetidin-3-yl)oxy-2-methyl-4-pyridyl]pyrazolo[1,5-a]pyridin-2-yl]cyclopropanecarboxamide] came in with an IC50 of 0.0204 µM. Take `CO[C@H]1CN(C)C[C@@H]1COc1cnc(C)cc1-c1ccn2nc(NC(=O)C3CC3)cc2c1` (single isomer, unassigned) [Example 461, Trans-*R, *R—N-[5-[5-[(4-methoxy-1-methyl-pyrrolidin-3-yl)methoxy]-2-methyl-4-pyridyl]pyrazolo[1,5-a]pyridin-2-yl]cyclopropanecarboxamide]: under setting [1], the IC50 was below 0.000847 µM. On the same count and under the same terms, as for `Cc1cc(-c2ccn3nc(NC(=O)C4CC4)cc3c2)c(OC[C@H](N)c2ccccc2)cn1` (single isomer, unassigned) [Example 465], the figure is 0.0129 µM.

`Cc1cc(-c2ccn3nc(NC(=O)C4CC4)cc3c2)c(OC[C@@H](N)c2ccccc2)cn1` (single isomer, unassigned) [Example 467]: the IC50 under setting [1] is 0.0304 µM. On the same count and under the same terms, as for `Cc1cc(-c2ccn3nc(Nc4cccnn4)cc3c2)c(OC[C@H]2CNCC(C)(C)O2)cn1` (single isomer, unassigned) [Example 516, (*R)-5-[5-[(6,6-dimethylmorpholin-2-yl)methoxy]-2-methyl-4-pyridyl]-N-pyridazin-3-yl-pyrazolo[1,5-a]pyridin-2-amine], the figure is 0.0528 µM; as for `Cc1cc(-c2ccn3nc(NC(=O)C4CC4)cc3c2)c(OC[C@]2(F)CCN(C)C2)cn1` (single isomer, unassigned) [Example 519, (*S)—N-[5-[5-[(3-fluoro-1-methyl-pyrrolidin-3-yl)methoxy]-2-methyl-4-pyridyl]pyrazolo[1,5-a]pyridin-2-yl]cyclopropanecarboxamide], 0.0251 µM.

Take `Cc1cc(-c2ccn3nc(NC(=O)C4CC4)cc3c2)c(OC[C@@]2(O)CCN(C)C2)cn1` (single isomer, unassigned) [Example 522, (*R)—N-[5-[5-[(3-hydroxy-1-methyl-pyrrolidin-3-yl)methoxy]-2-methyl-4-pyridyl]pyrazolo[1,5-a]pyridin-2-yl]cyclopropanecarboxamide]: under setting [1], the IC50 is 0.013 µM.

On to `Cc1cc(-c2ccn3nc(Nc4cc(C)nc(C)n4)cc3c2)c(O[C@@H]2COC(C)(C)C2)cn1` (single isomer, unassigned) [Example 533, (*S)—N-(2,6-dimethylpyrimidin-4-yl)-5-[5-(5,5-dimethyltetrahydrofuran-3-yl)oxy-2-methyl-4-pyridyl]pyrazolo[1,5-a]pyridin-2-amine], for which the IC50 under setting [1] came out at 0.00543 µM. Still for that read-out and setting: under `Cc1cc(-c2ccn3nc(Nc4cc(C)nc(C)n4)cc3c2)c(O[C@H]2COC[C@H]2C)cn1` (single isomer, unassigned) [Example 534, (3*R, 4*R)—N-(2,6-dimethylpyrimidin-4-yl)-5-[2-methyl-5-(4-methyltetrahydrofuran-3-yl)oxy-4-pyridyl]pyrazolo[1,5-a]pyridin-2-amine] stands 0.0145 µM; under `Cc1cc(-c2ccn3nc(Nc4cc(C)nc(C)n4)cc3c2)c(OC[C@]2(C)CCOC2)cn1` (single isomer, unassigned) [Example 535, (*R)—N-(2,6-dimethylpyrimidin-4-yl)-5-[2-methyl-5-[(3-methyltetrahydrofuran-3-yl)methoxy]-4-pyridyl]pyrazolo[1,5-a]pyridin-2-amine], 0.0107 µM; under `Cc1cc(-c2ccn3nc(Nc4cc(C)nc(C)n4)cc3c2)c(OC[C@@]2(C)CCOC2)cn1` (single isomer, unassigned) [Example 536, (*S)—N-(2,6-dimethylpyrimidin-4-yl)-5-[2-methyl-5-[(3-methyltetrahydrofuran-3-yl)methoxy]-4-pyridyl]pyrazolo[1,5-a]pyridin-2-amine], 0.0535 µM. Still for that read-out and setting: under `Cc1cc(-c2ccn3nc(Nc4cc(C)nc(C)n4)cc3c2)c(OC[C@@H]2COC(C)(C)C2)cn1` (single isomer, unassigned) [Example 539, (*R)—N-(2,6-dimethylpyrimidin-4-yl)-5-[5-[(5,5-dimethyltetrahydrofuran-3-yl)methoxy]-2-methyl-4-pyridyl]pyrazolo[1,5-a]pyridin-2-amine] stands 0.0606 µM; under `Cc1cc(-c2ccn3nc(Nc4cc(C)nc(C)n4)cc3c2)c(OC[C@H]2COC(C)(C)C2)cn1` (single isomer, unassigned) [Example 540, (*S)—N-(2,6-dimethylpyrimidin-4-yl)-5-[5-[(5,5-dimethyltetrahydrofuran-3-yl)methoxy]-2-methyl-4-pyridyl]pyrazolo[1,5-a]pyridin-2-amine], 0.0585 µM. For the compound `Cc1cc(-c2ccn3nc(Nc4cc(C)nc(C)n4)cc3c2)c(OC[C@@H]2COC3(CCCC3)O2)cn1` (single isomer, unassigned) [Example 543, (*R)—N-(2,6-dimethylpyrimidin-4-yl)-5-[5-(6,9-dioxaspiro[4.4]nonan-8-ylmethoxy)-2-methyl-4-pyridyl]pyrazolo[1,5-a]pyridin-2-amine], the IC50 under setting [1] worked out at 0.016 µM.

Values taken from patent US20240158392A1 (Janssen Biotech, Inc., priority 2021, published 2024).
